# Patent US20220241311A1, “METHODS AND MATERIALS FOR TREATING GLYCOSYLATION DISORDERS” (priority 2018, published 2022)
# Key:
# PGM1-CDG patients = assay: Oral D-gal supplementation: laboratory studies in blood (liver transaminases, coagulation, glycoproteins, CK, glucose); format: in vivo, human
# Text: The study design was an open-label prospective study. Patients with biochemically and genetically confirmed PGM1 deficiency were recruited into the study. Individuals with an existing diagnosis of aldolase B deficiency, galactosemia, hemolytic uremic syndrome, severe anemia, galactose intolerance, or intellectual disability were excluded from the study. Nine patients were enrolled in the study, five females and four males. Patient age ranged from 19 months to 21 years old at the time of enrollment (mean age 9.75 years). Informed written consent was obtained before the start of study. A primary end-point was to assess the safety and tolerability of oral D-gal supplementation and to identify physiological biomarkers that are responsive to D-gal supplementation in a heterogeneous genetic background. The effect of D-gal in PGM1-CDG patients was also monitored via glycomics. Secondary endpoints were the restoration of the plasma glycan subfractions, monitored via glycomics (Table 3), and normalization of antithrombin III activity and serum alanine transaminase (ALT) levels.
# The D-gal intake was increased over the study period in increments as follows: weeks 0-6 (T0-T1), 0.5 g/kg per day; weeks 6-12 (T1-T2), 1.0 g/kg per day; weeks 12-18 (T2-T3), 1.5 g/kg per day (FIG. 2). The intake was increased gradually to reach the recommended maximum daily dose with minimal gastrointestinal irritation (diarrhea, stomachache, nausea) and metabolic side effects (presence of urinary galactitol).
# Dietary assessment, clinical evaluation (general physical examination and anthropometric measurements), and laboratory and biochemical studies were completed every 6 weeks (T0, T1, T2 and T3).
# (§1) Liver transaminases (aspartate transaminase (AST) and alanine transaminase (ALT)), creatine kinase (CK), commonly assayed glycoproteins (thyroid stimulating hormone (TSH), thyroxine-binding globulin (TBG), and insulin-like growth factor binding protein 3 (IGF3BP)), and coagulation parameters (Factor IX, Factor XI, activated […] (aPTT), and anti-thrombin III (ATIII)), were measured in blood. Patent 1 had additional Factor XI, and XIII measurements. Serum galactose-1-phosphate and urine galactitol were measured to monitor safety and tolerability of galactose supplementation. Biochemical studies to evaluate changes in glycosylation included isoelectric focusing (IEF) of serum transferrin and glycomic analysis in blood by mass spectrometry.
# Patient 1 remained on D-gal 1 g/kg/day after the study period as D-gal is the only currently available compassionate treatment for PGM1-CDG. The parameters monitored during the study period, including additional coagulation factor measurements, have been followed as part of routine care (Table 4).
# Quantitative data are presented as the mean±standard error of the mean.
# ICAM-1 = ICAM-1 Western blotting with galactose supplementation, healthy cells
# serum transferrin = assay: Glycomics / high-resolution mass spectrometry of intact serum transferrin at T0 and T3; format: in vivo, human; conditions: for Ratio A-Glyco / DiGlyco transferrin / Ratio Mono-Glyco / DiGlyco transferrin / Ratio Trisialo-Glyco / DiGlyco transferrin: T = 3; for Ratio A-Glyco / DiGlyco transferrin: control range <=0.01040; for Ratio Mono-Glyco / DiGlyco transferrin: control range <=0.02700; for Ratio Trisialo-Glyco / DiGlyco transferrin: control range <=0.031900
# Procedure: as §1
# Plasma (sodium heparin) or serum was used for glycomics analysis according to the procedure as described elsewhere (see, e.g., van Scherpenzeel et al., 2015 Transl Res 166:639-649.e1). Briefly, a 10 μl serum sample was purified using anti-transferrin beads. The eluate was analyzed on a microfluidic 6540 LC-chip-QTOF instrument (Agilent Technologies) using a C8 protein chip. Data analysis was performed using Agilent Mass Hunter Qualitative Analysis Software B.05.00.
# The most abundant peaks in the transferrin mass spectrometry profiles were annotated, and ratios were calculated for the nonglycosylated (A-Glyco), monoglycosylated (Mono-Glyco), and trisialo- (Trisialo-Glyco) transferrin over the normal transferrin peak (tetrasialo; Di-Glyco). Ratios were compared in patient samples before D-gal supplementation and 18 weeks after starting oral supplements according to protocol. An example is shown in FIG. 5 for a severely (patient 2) and a mildly (patient 9) abnormal profile. A-Glyco- and Mono-Glyco ratios were abnormal in all patients. […] The most pronounced improvement was measured in patient 4. In patients 3 and 8, the A-Glyco peak normalized (Table 3, FIG. 6).
# [1] = patient 1, 1 g/kg/day for additional 12 months
compound,measurement,setting,value
"O=C[C@H](O)[C@@H](O)[C@@H](O)[C@H](O)CO [D-gal, D-galactose]",ALT levels,"PGM1-CDG patients; T0 to T2, p=0.05",significantly decreased
same,"ATIII, T0 vs T3","PGM1-CDG patients; all patient data, P=0.020",significant difference
same,AST,"PGM1-CDG patients; all patients except patient 2, 18 weeks","did not normalize at 18 weeks, it fell below baseline"
same,AST,"PGM1-CDG patients; all patients, 6 weeks",moderately declined
same,AST,"PGM1-CDG patients; all patients, 12 weeks vs baseline",declined by 23% to more than 10-fold
same,Creatine kinase and glucose levels,PGM1-CDG patients; during the study,fluctuated and remained abnormal
same,Frequency of hypoglycemic episodes,PGM1-CDG patients; during the study,decreased significantly in four patients
same,Laboratory parameters at 1.5 g/kg/day compared to 1 g/kg/day,PGM1-CDG patients; last 6 weeks of the trial,did not lead to significant improvement
same,"ALT, aPTT, ATIII, TSH, TBG, long-term",PGM1-CDG patients; [1],remained stable
same,"Factor XI and Factor XIII, long-term",PGM1-CDG patients; [1],returned to before-treatment levels
same,ATIII,"PGM1-CDG patients; patient 1, 18 weeks",remained within normal range
same,Factor XI,"PGM1-CDG patients; patient 1, after 12-18 weeks",normalized
same,Factor XIII,"PGM1-CDG patients; patient 1, after 12-18 weeks",normalized
same,"Creatine kinase decrease, long-term","PGM1-CDG patients; patient 1, over the course of one year",~80%
same,TSH,PGM1-CDG patients; patient 2 (abnormal baseline),normalized at 18 weeks
same,ATIII vs baseline,"PGM1-CDG patients; patient 2, 18 weeks",twofold higher than baseline
same,AST,"PGM1-CDG patients; patient 2, 18 weeks, after discontinuing galactose for 2 weeks","spiked upwards, almost reaching baseline"
same,"ALT, excess over baseline","PGM1-CDG patients; patient 2, 18 weeks, intercurrent illness",18%
same,ATIII drop,"PGM1-CDG patients; patient 2, following illness and cessation of galactose intake",30%
same,IGFBP-3,PGM1-CDG patients; patient 3,normalized at 18 weeks
same,TSH,PGM1-CDG patients; patient 5 (abnormal baseline),normalized at 6 weeks and remained stable at 12 and 18 weeks
same,ALT decrease,"PGM1-CDG patients; patient 5, 6 weeks",43%
same,ATIII,"PGM1-CDG patients; patient 5, 6 weeks",transiently normalized
same,ALT above the upper limit of normal,"PGM1-CDG patients; patient 5, 12 and 18 weeks",3%
same,ATIII below the lower limit of normal,"PGM1-CDG patients; patient 5, 12 and 18 weeks",8%
same,IGFBP-3,"PGM1-CDG patients; patient 6, 12 weeks",slight improvement
same,IGFBP-3 below the lower limit of normal,"PGM1-CDG patients; patient 6, 12 weeks",about 50%
same,TBG below the lower limit of normal,"PGM1-CDG patients; patient 6, 12 weeks",8%
same,TBG improvement,"PGM1-CDG patients; patient 6, 12 weeks",30%
same,TBG higher than the upper limit of normal,"PGM1-CDG patients; patient 9, 18 weeks",80%
same,TBG decline,"PGM1-CDG patients; patient 9, 18 weeks, baseline twofold the upper limit of normal",12%
same,ALT,"PGM1-CDG patients; patients 1, 2, 4, 7 (abnormal baseline)",normalized at 6 or 12 weeks
same,Factor IX levels,"PGM1-CDG patients; patients 1, 2, 5, 6, 9, 18 weeks",remained normal
same,IGFBP-3,PGM1-CDG patients; patients 1 and 2,normalized at 12 weeks and remained stable at 18 weeks
same,TBG,PGM1-CDG patients; patients 1 and 2,normalized at 6 weeks and remained stable at 12 and 18 weeks
same,ATIII,"PGM1-CDG patients; patients 1 and 2, 12 weeks",normalized
same,aPTT,PGM1-CDG patients; patients 1 and 7 (abnormal baseline),"normalized at 6 and 12 weeks, respectively"
same,aPTT,"PGM1-CDG patients; patients 2, 3, 5, 6 (normal baseline)",remained stable
same,ICAM-1 expression,ICAM-1,no effect
same,Transferrin glycosylation,"serum transferrin; 8 patients, type 2 pattern shifting to mild type 1 pattern",Clear improvement
same,Ratio A-Glyco / DiGlyco transferrin,serum transferrin; Patient 1,0.042
same,Ratio Mono-Glyco / DiGlyco transferrin,serum transferrin; Patient 1,0.198
same,Ratio Trisialo-Glyco / DiGlyco transferrin,serum transferrin; Patient 1,0.0778
same,Ratio A-Glyco / DiGlyco transferrin,serum transferrin; Patient 2,0.046
same,Ratio Mono-Glyco / DiGlyco transferrin,serum transferrin; Patient 2,0.213
same,Ratio Trisialo-Glyco / DiGlyco transferrin,serum transferrin; Patient 2,0.0542
same,Ratio A-Glyco / DiGlyco transferrin,serum transferrin; Patient 3,0.002
same,Ratio Mono-Glyco / DiGlyco transferrin,serum transferrin; Patient 3,0.071
same,Ratio Trisialo-Glyco / DiGlyco transferrin,serum transferrin; Patient 3,0.0549
same,Ratio A-Glyco / DiGlyco transferrin,serum transferrin; Patient 4,0.314
same,Ratio Mono-Glyco / DiGlyco transferrin,serum transferrin; Patient 4,0.632
same,Ratio Trisialo-Glyco / DiGlyco transferrin,serum transferrin; Patient 4,0.0938
same,Ratio A-Glyco / DiGlyco transferrin,serum transferrin; Patient 5,0.021
same,Ratio Mono-Glyco / DiGlyco transferrin,serum transferrin; Patient 5,0.142
same,Ratio Trisialo-Glyco / DiGlyco transferrin,serum transferrin; Patient 5,0.0740
same,Ratio A-Glyco / DiGlyco transferrin,serum transferrin; Patient 6,0.044
same,Ratio Mono-Glyco / DiGlyco transferrin,serum transferrin; Patient 6,0.293
same,Ratio Trisialo-Glyco / DiGlyco transferrin,serum transferrin; Patient 6,0.0639
same,Ratio A-Glyco / DiGlyco transferrin,serum transferrin; Patient 7,0.108
same,Ratio Mono-Glyco / DiGlyco transferrin,serum transferrin; Patient 7,0.356
same,Ratio Trisialo-Glyco / DiGlyco transferrin,serum transferrin; Patient 7,0.0551
same,Ratio A-Glyco / DiGlyco transferrin,serum transferrin; Patient 8 (non-compliant),0.003
same,Ratio Mono-Glyco / DiGlyco transferrin,serum transferrin; Patient 8 (non-compliant),0.081
same,Ratio Trisialo-Glyco / DiGlyco transferrin,serum transferrin; Patient 8 (non-compliant),0.0712
same,Ratio A-Glyco / DiGlyco transferrin,serum transferrin; Patient 9,0.019
same,Ratio Mono-Glyco / DiGlyco transferrin,serum transferrin; Patient 9,0.127
same,Ratio Trisialo-Glyco / DiGlyco transferrin,serum transferrin; Patient 9,0.0561
same,Transferrin glycosylation pattern,serum transferrin; T3,None of the patients showed a normalized pattern
same,Transferrin glycosylation,serum transferrin; patient 5,no change was observed
same,A-glyco fraction,"serum transferrin; patients 3 and 8, 18 weeks",completely normalized
